Laboratory results as given in US11384075B2, “Quinolinone compounds” (Janssen Pharmaceutica NV, priority 2017, dated 2022).

Assays:
[1] = target: T1, NIH/3T3 cells overexpressing FGFR3 V555M-TACC3 fusion protein (Homo sapiens, UniProt P22607, V555M, cells depend on it); experiment: NIH/3T3 FGFR3 V555M-TACC3 cell proliferation assay; format: cell-based; settings: 72-hr incubation, CellTiter Glo, starting with 10 μM; read-out: NIH/3T3 FGFR3 V555M-TACC3 CTG (IC50)
T1 construct: NIH/3T3 FGFR3 V555M-TACC3 CTG (IC50); other: 72-hr incubation, CellTiter Glo, starting with 10 μM; fused on or other part: Q9Y6A5 (Transforming acidic coiled-coil-containing protein 3)
T1 sequence (P22607 whole entry V555M, the tested form may be a part): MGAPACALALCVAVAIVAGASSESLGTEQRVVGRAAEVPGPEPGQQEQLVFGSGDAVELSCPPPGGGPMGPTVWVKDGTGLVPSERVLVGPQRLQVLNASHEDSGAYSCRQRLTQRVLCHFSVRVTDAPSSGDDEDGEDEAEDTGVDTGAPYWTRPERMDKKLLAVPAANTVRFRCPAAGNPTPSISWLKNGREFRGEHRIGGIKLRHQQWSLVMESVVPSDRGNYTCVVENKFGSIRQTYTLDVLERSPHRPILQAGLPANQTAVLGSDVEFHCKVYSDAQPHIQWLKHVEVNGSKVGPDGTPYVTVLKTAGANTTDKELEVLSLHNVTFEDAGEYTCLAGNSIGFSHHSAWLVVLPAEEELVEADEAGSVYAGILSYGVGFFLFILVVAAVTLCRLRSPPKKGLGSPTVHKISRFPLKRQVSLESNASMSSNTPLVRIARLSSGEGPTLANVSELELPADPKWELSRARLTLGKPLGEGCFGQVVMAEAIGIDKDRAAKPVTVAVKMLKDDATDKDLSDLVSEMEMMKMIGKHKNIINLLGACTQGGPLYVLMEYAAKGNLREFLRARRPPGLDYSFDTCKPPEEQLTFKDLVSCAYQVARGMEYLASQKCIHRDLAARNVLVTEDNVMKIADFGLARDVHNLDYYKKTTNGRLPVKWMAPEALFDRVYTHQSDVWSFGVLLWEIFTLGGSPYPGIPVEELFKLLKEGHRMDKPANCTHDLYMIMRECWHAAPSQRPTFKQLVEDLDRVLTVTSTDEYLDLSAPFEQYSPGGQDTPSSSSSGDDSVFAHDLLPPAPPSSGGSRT
Outline: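 NIH/3T3 cells overexpressing FGFR3 V555M-TACC3 fusion, 30,000/well in DMEM/10% FBS, treated for 72 h at 37 °C with 9 doses (4× dilutions from 10 μM top, 0.1% DMSO). CellTiter-Glo luminescence normalised to % survival; IC50, pIC50 and Hill slope from concentration-response fits.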

[2] = target: T2, human FGFR3 V555M enzyme (cytoplasmic domain carrying V555M mutation) (Homo sapiens, UniProt P22607, V555M); experiment: FGFR3 V555M mobility shift assay (enzymatic assay); format: biochemical; settings: 30 μM ATP, 45 minutes at 30° C., Caliper EZ reader II
T2 construct: human FGFR3 V555M enzyme (cytoplasmic domain carrying V555M mutation, from Carna Biosciences); purchased Carna Biosciences
T2 sequence (P22607 397-806 V555M limits assumed): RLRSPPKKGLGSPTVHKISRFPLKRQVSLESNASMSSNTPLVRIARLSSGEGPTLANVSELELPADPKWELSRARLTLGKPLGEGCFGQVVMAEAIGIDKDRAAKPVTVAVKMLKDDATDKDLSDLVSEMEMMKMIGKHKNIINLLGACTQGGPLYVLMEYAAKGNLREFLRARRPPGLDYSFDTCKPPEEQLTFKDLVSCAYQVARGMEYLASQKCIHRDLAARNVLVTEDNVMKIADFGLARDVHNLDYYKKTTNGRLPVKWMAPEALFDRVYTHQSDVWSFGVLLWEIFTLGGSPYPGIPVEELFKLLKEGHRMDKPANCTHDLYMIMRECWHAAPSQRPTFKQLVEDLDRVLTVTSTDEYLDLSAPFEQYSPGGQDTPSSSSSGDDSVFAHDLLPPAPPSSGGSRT
Outline: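 Cytoplasmic-domain FGFR3 V555M (0.04 ng/μL) with 30 μM ATP and 1 μM FL-peptide 30 in HEPES pH 7.4/MgCl2/Brij35/DTT, 1% DMSO, 45 min at 30 °C, EDTA-stopped. Mobility-shift read of substrate-product conversion; 10-point 4× dilution from 10 μM fitted for IC50/pIC50.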

[3] = test system: NIH/3T3 cells transfected with the same control vector; experiment: NIH/3T3 mock cell proliferation assay (counter assay, general toxicity); format: cell-based; settings: Mus musculus, NIH3T3, 72 h, 72-hr incubation, CellTiter Glo, starting with 30 μM; counter assay for general toxicity; read-out: NIH/3T3 MOCK CTG (IC50)
Outline: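 Control-vector NIH/3T3 cells, 30,000/well in DMEM with 10% FBS, exposed 72 h at 37 °C to compound (9 points, 3-fold from 30 μM, 0.3% DMSO). CellTiter-Glo luminescence normalized to survival %; IC50, pIC50 and Hill slope from concentration-response fit.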

[4] = target: T3, human FGFR3 wild type enzyme (cytoplasmic domain) (Homo sapiens, UniProt P22607); experiment: FGFR3 wild type mobility shift assay (enzymatic assay); format: biochemical; settings: 75 μM ATP, 50 minutes at 30° C., Caliper EZ reader II
T3 construct: human FGFR3 wild type enzyme (cytoplasmic domain, from Carna Biosciences); purchased Carna Biosciences
T3 sequence (P22607 397-806 limits assumed): as the sequence (P22607 397-806 V555M limits assumed) above, with M159V counted along it
Outline: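 Cytoplasmic domain of human wild-type FGFR3 (0.04 ng/μL) with 75 μM ATP and 1 μM FL-peptide 30, pH 7.4 HEPES/MgCl2 buffer, 1% DMSO, 50 min at 30 °C, EDTA-stopped. Substrate-product conversion read by mobility shift. IC50, pIC50 and Hill slope from 10-point 4-fold dilutions starting at 10 μM.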

[5] = target: T4, NIH/3T3 cells overexpressing FGFR3 WT-TACC3 fusion protein (Homo sapiens, UniProt P22607); experiment: NIH/3T3 FGFR3 WT-TACC3 cell proliferation assay; format: cell-based; settings: 72-hr incubation, CellTiter Glo, starting with 10 μM; read-out: NIH/3T3 FGFR3 WT-TACC3 CTG (IC50)
T4 construct: NIH/3T3 FGFR3 WT-TACC3 CTG (IC50); other: 72-hr incubation, CellTiter Glo, starting with 10 μM; fused on or other part: Q9Y6A5 (Transforming acidic coiled-coil-containing protein 3)
T4 sequence (P22607 whole entry, change not shown, the tested form may be a part): as the sequence (P22607 whole entry V555M, the tested form may be a part) above, with M555V counted along it
Outline: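 Cells seeded overnight, then exposed 72 h at 37 °C to compound in 9-point 4-fold dilutions from 10 μM (0.1% DMSO final). Viability read by CellTiter-Glo luminescence, normalized to survival %; IC50, pIC50 and Hill slope from concentration-response fit.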

[6] = target: T5, human FGFR3 V555L enzyme (cytoplasmic domain carrying V555L mutation) (Homo sapiens, UniProt P22607, V555L); experiment: FGFR3 V555L mobility shift assay (enzymatic assay); format: biochemical; settings: 40 μM ATP, 50 minutes at 30° C., Caliper EZ reader II
T5 construct: human FGFR3 V555L enzyme (cytoplasmic domain carrying V555L mutation, from Carna Biosciences); purchased Carna Biosciences
T5 sequence (P22607 397-806 V555L limits assumed): as the sequence (P22607 397-806 V555M limits assumed) above, with M159L counted along it
Experimental: FGFR3 V555L Mobility Shift Assay (Enzymatic Assay)
In a final reaction volume of 25 μL, 0.04 ng/μL human FGFR3 V555L enzyme (cytoplasmic domain carrying V555L mutation, from Carna Biosciences) was incubated with 40 μM ATP, 1 μM FL-peptide 30 substrate and 250 nL of testing compound (1% DMSO final) in assay buffer (100 mM HEPES pH 7.4, 10 mM MgCl2, 0.003% Brij35, 1 mM DTT). After incubation for 50 minutes at 30° C. the reaction was stopped with 10 μL of 0.5M EDTA pH 8.0, and then 25 μL of reaction mixture was transferred to reading plate and measured on Caliper EZ reader II. The substrate-product conversion rate was used as raw data for normalization and concentration-response curve (10 dose points with 4× serial dilution, starting with 10 μM) was plotted using Prism to calculate IC50 (M), pIC50 (−log IC50) and HillSlope value.

SMILES: C[C@@H](Nc1c(-c2nc3ccc(N4CCOCC4)cc3[nH]2)c(=O)[nH]c2ccccc12)c1ncccn1 [Compound 3, (R)-3-(6-morpholino-1H-benzo[d]imidazol-2-yl)-4-((1-(pyrimidin-2-yl)ethyl)-amino)quinolin-2(1H)-one]
- GI50 [1]: 41.8 nM
- IC50 [2]: 204 nM
- IC50 [3]: 11000 nM
- IC50 [4]: 585 nM
- GI50 [5]: 58.5 nM

SMILES: C[C@H](Nc1c(-c2nc3ccc(N4CCC(C(=O)O)CC4)cc3[nH]2)c(=O)[nH]c2ccccc12)c1ccccn1 [Compound 6, (S)-1-(2-(2-Oxo-4-((1-(pyridin-2-yl)ethyl)amino)-1,2-dihydroquinolin-3-yl)-H-benzo[d]imidazol-6-yl)piperidine-4-carboxylic acid 0.5formate]
- GI50 [1]: 61.7 nM
- IC50 [2]: 0.484 nM
- IC50 [3]: 795 nM
- IC50 [4]: 0.809 nM
- GI50 [5]: 32.3 nM

SMILES: COC(=O)C1CCN(c2ccc3nc(-c4c(N[C@@H](C)c5ccccn5)c5ccccc5[nH]c4=O)[nH]c3c2)CC1 [Compound 7, (S)-Methyl-1-(2-(2-oxo-4-((1-(pyridin-2-yl)ethyl)amino)-1,2-dihydroquinolin-3-yl)-1H-benzo[d]imidazol-6-yl)piperidine-4-carboxylate]
- GI50 [1]: 99.7 nM
- IC50 [2]: 1.3 nM
- IC50 [3]: 858 nM
- IC50 [4]: 1.83 nM
- GI50 [5]: 19.8 nM

SMILES: C[C@H](Nc1c(-c2nc3cc(C(F)(F)F)c(N4CCN(C)CC4)cc3[nH]2)c(=O)[nH]c2ccccc12)c1ccccn1 [Compound 14, (S)-3-(6-(4-methylpiperazin-1-yl)-5-(trifluoromethyl)-1H-benzo[d]imidazol-2-yl)-4-((1-(pyridin-2-yl)ethyl)amino)quinolin-2(1H)-one]
- GI50 [1]: 141 nM
- IC50 [2]: 2.15 nM
- IC50 [3]: 3010 nM
- IC50 [4]: 3.38 nM
- GI50 [5]: 52.2 nM

SMILES: C[C@H](Nc1c(-c2nc3ccc(N4CCN(C)C(=O)C4)cc3[nH]2)c(=O)[nH]c2ccccc12)c1ccccn1 [Compound 15, (S)-3-(6-(4-methyl-3-oxopiperazin-1-yl)-1H-benzo[d]imidazol-2-yl)-4-((1-(pyridin-2-yl)ethyl)amino)quinolin-2(1H)-one]
- GI50 [1]: 24.9 nM
- IC50 [2]: 0.351 nM
- IC50 [3]: 1190 nM
- IC50 [4]: 0.851 nM
- GI50 [5]: 12.4 nM

SMILES: C[C@H](Nc1c(-c2nc3ccc(N4CCOCC4)cc3[nH]2)c(=O)[nH]c2c(F)cccc12)c1ccccn1 [Compound 16, (S)-8-fluoro-3-(6-morpholino-1H-benzo[d]imidazol-2-yl)-4-((1-(pyridin-2-yl)ethyl)-amino)quinolin-2(1H)-one]
- GI50 [1]: 274 nM
- IC50 [2]: 2.66 nM
- IC50 [3]: 2600 nM
- IC50 [4]: 16.6 nM
- GI50 [5]: 253 nM

SMILES: C[C@H](Nc1c(-c2nc3ccc(N4CCOCC4)cc3[nH]2)c(=O)[nH]c2ccc(F)cc12)c1ccccn1 [Compound 17, (S)-6-fluoro-3-(6-morpholino-1H-benzo[d]imidazol-2-yl)-4-((1-(pyridin-2-yl)ethyl)-amino)quinolin-2(1H)-one]
- GI50 [1]: 114 nM
- IC50 [2]: 0.997 nM
- IC50 [3]: 661 nM
- IC50 [4]: 4.89 nM
- GI50 [5]: 58.7 nM

SMILES: C[C@H](Nc1c(-c2nc3cc(C(F)(F)F)c(NC4CCN(C)CC4)cc3[nH]2)c(=O)[nH]c2ccccc12)c1ccccn1 [Compound 18, (S)-3-(6-((1-methylpiperidin-4-yl)amino)-5-(trifluoromethyl)-1H-benzo[d]imidazol-2-yl)-4-((1-(pyridin-2-yl)ethyl)amino)quinolin-2(1H)-one]
- GI50 [1]: 87.8 nM
- IC50 [2]: 1.35 nM
- IC50 [3]: 733 nM
- IC50 [4]: 1.35 nM
- GI50 [5]: 56.8 nM

SMILES: C[C@H](Nc1c(-c2nc3cc(C(F)(F)F)c(N(C)C4CCN(C)CC4)cc3[nH]2)c(=O)[nH]c2ccccc12)c1ccccn1 [Compound 19, (S)-3-(6-(methyl(1-methylpiperidin-4-yl)amino)-5-(trifluoromethyl)-1H-benzo[d]-imidazol-2-yl)-4-((1-(pyridin-2-yl)ethyl)amino)quinolin-2(1H)-one]
- GI50 [1]: 66.5 nM
- IC50 [2]: 0.358 nM
- IC50 [3]: 2450 nM
- IC50 [4]: 0.367 nM
- GI50 [5]: 46.1 nM

SMILES: C[C@H](Nc1c(-c2nc3ccc(C(=O)N4CCOCC4)cc3[nH]2)c(=O)[nH]c2ccccc12)c1ccccn1 [Compound 20, (S)-3-(6-(morpholine-4-carbonyl)-1H-benzo[d]imidazol-2-yl)-4-((1-(pyridin-2-yl)-ethyl)amino)quinolin-2(1H)-one]
- GI50 [1]: 17.1 nM
- IC50 [2]: 0.49 nM
- IC50 [3]: 952 nM
- IC50 [4]: 0.826 nM
- GI50 [5]: 23.5 nM

SMILES: Cc1cc(N2CCOCC2)cc2[nH]c(-c3c(N[C@@H](C)c4ncccn4)c4ccccc4[nH]c3=O)nc12 [Compound 46, (S)-3-(4-methyl-6-morpholino-1H-benzo[d]imidazol-2-yl)-4-((1-(pyrimidin-2-yl)ethyl)-amino)quinolin-2(1H)-one]
- GI50 [1]: 15.9 nM
- IC50 [2]: 0.742 nM
- IC50 [3]: 3910 nM
- IC50 [4]: 1.17 nM
- GI50 [5]: 19.9 nM

SMILES: Cc1c(N2CCOCC2)ccc2nc(-c3c(N[C@@H](C)c4ncccn4)c4ccccc4[nH]c3=O)[nH]c12 [Compound 47, (S)-3-(7-methyl-6-morpholino-1H-benzo[d]imidazol-2-yl)-4-((1-(pyrimidin-2-yl)-ethyl)amino)quinolin-2(1H)-one]
- GI50 [1]: 12.3 nM
- IC50 [2]: 0.27 nM
- IC50 [3]: 547 nM
- IC50 [4]: 0.67 nM
- GI50 [5]: 16 nM

SMILES: C[C@H](Nc1c(-c2nc3ccc(N4CCOCC4)cc3[nH]2)c(=O)[nH]c2ccccc12)c1ccccn1 [Compound 55, (S)-3-(6-Morpholino-1H-benzo[d]imidazol-2-yl)-4-((1-(pyridin-2-yl)ethyl)amino)-quinolin-2(1H)-one]
- GI50 [1]: 34.3 nM
- IC50 [2]: 0.538 nM
- IC50 [3]: 460 nM
- IC50 [4]: 1.76 nM
- IC50 [6]: 1.25 nM

SMILES: CC(C)N1CCN(c2ccc3nc(-c4c(N[C@@H](C)c5ccccn5)c5ccccc5[nH]c4=O)[nH]c3c2)CC1 [Compound 56, (S)-3-(6-(4-isopropylpiperazin-1-yl)-1H-benzo[d]imidazol-2-yl)-4-((1-(pyridin-2-yl)-ethyl)amino)quinolin-2(1H)-one]
- GI50 [1]: 10.7 nM
- IC50 [2]: 0.0676 nM
- IC50 [3]: 770 nM
- IC50 [4]: 0.128 nM
- IC50 [6]: 0.135 nM

SMILES: C[C@H](Nc1c(-c2nc3ccc(OC4CCN(C)CC4)cc3[nH]2)c(=O)[nH]c2ccccc12)c1ccccn1 [Compound 64, (S)-3-(6-((1-Methylpiperidin-4-yl)oxy)-1H-benzo[d]imidazol-2-yl)-4-((1-(pyridin-2-yl)-ethyl)amino)quinolin-2(1H)-one]
- IC50 [2]: 0.263 nM
- IC50 [4]: 0.369 nM
- IC50 [6]: 0.504 nM
